Experimental data reported in patent publication US9926297B2, “Bicyclic AZA compounds as muscarinic M1 receptor and/or M4 receptor agonists” (Heptares Therapeutics Limited, priority 2014, dated 2018).

Key:
[1] = molecular target: T1, human muscarinic M1 receptor (Homo sapiens, UniProt P11229); test: Alphascreen Surefire phospho-ERK1/2 functional assay, M1; format: cell-based; settings: for EC50 / % Emax cf. ACh, M1: CHO cells stably expressing human M1; for EC50: phospho-ERK1/2, * = variable results, read-out: pEC50 M1 (converted); for Emax: CHO, read-out: % Emax cf. ACh, M1, CHO cells stably expressing human M1; for Emax / % Emax cf. ACh, M1: relative to ACh
T1 sequence (P11229 1-460): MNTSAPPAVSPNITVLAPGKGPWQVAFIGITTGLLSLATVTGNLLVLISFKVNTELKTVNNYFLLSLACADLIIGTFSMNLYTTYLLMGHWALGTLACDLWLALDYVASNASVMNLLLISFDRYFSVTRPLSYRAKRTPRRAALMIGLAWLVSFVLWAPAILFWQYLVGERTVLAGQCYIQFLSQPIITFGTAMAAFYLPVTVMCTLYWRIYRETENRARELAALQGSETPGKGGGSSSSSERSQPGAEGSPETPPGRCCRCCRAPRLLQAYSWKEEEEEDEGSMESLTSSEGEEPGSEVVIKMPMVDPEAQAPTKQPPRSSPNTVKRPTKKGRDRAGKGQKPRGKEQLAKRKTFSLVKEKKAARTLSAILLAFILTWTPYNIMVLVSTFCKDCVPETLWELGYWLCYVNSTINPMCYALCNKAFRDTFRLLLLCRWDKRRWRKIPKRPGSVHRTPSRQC

[2] = molecular target: T2, human muscarinic M4 receptor (Homo sapiens, UniProt P08173); test: Alphascreen Surefire phospho-ERK1/2 functional assay, M4; format: cell-based; settings: for EC50 / % Emax cf. ACh, M4: CHO cells stably expressing human M4; for EC50: phospho-ERK1/2, * = variable results, read-out: pEC50 M4 (converted); for Emax: CHO, read-out: % Emax cf. ACh, M4, CHO cells stably expressing human M4; for Emax / % Emax cf. ACh, M4: relative to ACh
T2 construct: expressed in transfected cells
T2 sequence (P08173 1-479): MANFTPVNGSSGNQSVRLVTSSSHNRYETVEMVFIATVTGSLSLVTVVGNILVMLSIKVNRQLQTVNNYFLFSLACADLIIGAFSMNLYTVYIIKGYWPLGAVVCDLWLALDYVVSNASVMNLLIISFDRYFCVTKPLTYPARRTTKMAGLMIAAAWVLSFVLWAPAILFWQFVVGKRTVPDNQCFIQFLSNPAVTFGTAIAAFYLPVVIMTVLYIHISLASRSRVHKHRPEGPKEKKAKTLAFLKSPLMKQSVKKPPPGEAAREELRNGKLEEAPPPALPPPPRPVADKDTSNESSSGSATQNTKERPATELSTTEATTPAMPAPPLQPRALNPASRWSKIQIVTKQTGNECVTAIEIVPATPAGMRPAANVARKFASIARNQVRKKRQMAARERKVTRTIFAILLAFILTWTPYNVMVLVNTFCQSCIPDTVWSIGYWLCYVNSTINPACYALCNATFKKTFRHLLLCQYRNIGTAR

[3] = molecular target: T3, human muscarinic M2 receptor (Homo sapiens, UniProt P08172); test: Alphascreen Surefire phospho-ERK1/2 functional assay, M2; settings: for Emax: CHO, read-out: % Emax cf. ACh, M2, CHO cells stably expressing human M2; for Emax / % Emax cf. ACh, M2: relative to ACh; for pEC50 M2 / % Emax cf. ACh, M2: CHO cells stably expressing human M2; for pEC50 M2: phospho-ERK1/2, * = variable results
T3 sequence (P08172 1-466): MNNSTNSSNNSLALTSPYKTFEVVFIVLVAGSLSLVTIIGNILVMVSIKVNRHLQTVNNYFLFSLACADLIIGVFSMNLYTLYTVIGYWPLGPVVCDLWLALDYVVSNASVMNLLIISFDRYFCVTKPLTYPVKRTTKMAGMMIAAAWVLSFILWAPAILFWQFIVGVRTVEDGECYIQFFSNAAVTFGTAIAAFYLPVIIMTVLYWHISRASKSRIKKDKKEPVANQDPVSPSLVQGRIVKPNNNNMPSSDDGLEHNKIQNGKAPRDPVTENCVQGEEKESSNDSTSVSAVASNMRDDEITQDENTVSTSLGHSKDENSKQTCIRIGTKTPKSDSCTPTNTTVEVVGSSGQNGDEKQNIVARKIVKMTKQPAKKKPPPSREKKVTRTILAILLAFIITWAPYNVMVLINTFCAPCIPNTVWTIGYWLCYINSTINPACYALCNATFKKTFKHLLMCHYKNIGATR

[4] = molecular target: human muscarinic M3 receptor (Homo sapiens, UniProt P20309); test: Alphascreen Surefire phospho-ERK1/2 functional assay, M3; settings: for Emax: CHO, read-out: % Emax cf. ACh, M3, CHO cells stably expressing human M3; for Emax / % Emax cf. ACh, M3: relative to ACh; for EC50: pEC50 M3, CHO cells stably expressing human M3; for EC50 / pEC50 M3: phospho-ERK1/2, * = variable results; for pEC50 M3 / % Emax cf. ACh, M3: CHO cells stably expressing human M3
Sequence of human muscarinic M3 receptor (P20309 whole entry): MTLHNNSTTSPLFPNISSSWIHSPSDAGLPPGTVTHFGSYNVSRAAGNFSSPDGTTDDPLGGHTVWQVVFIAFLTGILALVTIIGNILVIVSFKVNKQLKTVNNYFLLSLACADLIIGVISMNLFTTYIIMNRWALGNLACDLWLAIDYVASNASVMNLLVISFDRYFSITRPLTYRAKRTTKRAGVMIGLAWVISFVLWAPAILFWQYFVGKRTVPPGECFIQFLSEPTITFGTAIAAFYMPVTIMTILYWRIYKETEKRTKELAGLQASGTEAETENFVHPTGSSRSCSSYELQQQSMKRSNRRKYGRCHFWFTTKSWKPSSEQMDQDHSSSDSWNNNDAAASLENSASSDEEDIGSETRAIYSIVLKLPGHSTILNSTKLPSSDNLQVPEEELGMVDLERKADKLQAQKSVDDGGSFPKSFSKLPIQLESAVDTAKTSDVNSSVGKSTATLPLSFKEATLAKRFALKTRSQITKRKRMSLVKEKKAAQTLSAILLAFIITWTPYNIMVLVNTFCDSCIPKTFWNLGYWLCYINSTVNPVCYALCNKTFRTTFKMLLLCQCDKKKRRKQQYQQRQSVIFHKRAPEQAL

EC50 [1] [nM]	Emax [1] [%]	EC50 [2] [nM]	Emax [2] [%]	EC50 [3] [nM]	Emax [3] [%]	Emax [4] [%]	EC50 [4] [nM]	% Emax cf. ACh, M1 [1] [%]	% Emax cf. ACh, M4 [2] [%]	pEC50 M2 [3]	% Emax cf. ACh, M2 [3] [%]	pEC50 M3 [4]	% Emax cf. ACh, M3 [4] [%]	SMILES
631	37	20	121	> 20000	5	9	> 20000							CCOC(=O)N1CCC2(CC(N3CCC(C4CCCN4C(=O)NOC)CC3)C2)C1 (single isomer, unassigned) [2-24 Isomer 2, ethyl 2-{4-[1-(methoxycarbamoyl)pyrrolidin-2-yl]piperidin-1-yl}-6-azaspiro[3.4]octane-6-carboxylate]
631	74	10	86	> 20000	6	2	> 20000							CCOC(=O)N1CCC2(CC(N3CCC([C@@H]4CCCN4C(=O)NC(C)C)CC3)C2)C1 (single isomer, unassigned) [2-25 Isomer 2]
12.6	92	6.31	99	> 20000	66	4	> 20000							CCOC(=O)N1CCC2(CC(N3CCC([C@@H]4CCCN4C(=O)NCC(F)(F)F)CC3)C2)C1 (single isomer, unassigned) [2-26 Isomer 2]
31.6	24	10	73	> 20000	0.4	15	> 20000							CCOC(=O)N1CCC2(CC(N3CCC([C@@H]4CCCN4C(=O)N4CCC4)CC3)C2)C1 (single isomer, unassigned) [2-27 Isomer 2]
> 20000	7	25.1	63	> 20000	3	5	> 20000							CCOC(=O)N1CCC2(CC(N3CCC([C@@H]4CCCN4C(=O)N4CCOCC4)CC3)C2)C1 (single isomer, unassigned) [2-28 Isomer 2]
501	60	15.8	110	> 20000	5	13	> 20000							CCOC(=O)N1CCC2(CC(N3CCC([C@@H]4CCCN4C(=O)NC4CC4)CC3)C2)C1 (single isomer, unassigned) [2-29 Isomer 2]
501	34	15.8	97	> 20000	52	13	> 20000							CCOC(=O)N1CCC2(CC(N3CCC([C@@H]4CCCN4C(=O)NC4CCC4)CC3)C2)C1 (single isomer, unassigned) [2-30 Isomer 2]
126	93	3.16	108	> 20000	7	7	> 20000							CCOC(=O)N1CCC2(CC(N3CCC([C@@H]4CCCN4C(=O)NCCOC)CC3)C2)C1 (single isomer, unassigned) [2-31 Isomer 2]
2510	69	12.6	110	> 20000	52	11	> 20000							CCOC(=O)N1CCC2(CC(N3CCC([C@@H]4CCCN4C(=O)N4CCCC4)CC3)C2)C1 (single isomer, unassigned) [2-32 Isomer 2]
398		7.94		> 20000	8	3	> 20000	86	109					CCOC(=O)N1CCC2(CC(N3CCC([C@@H]4CCCN4C(=O)NOC)CC3)C2)C1 (single isomer, unassigned) [2-33 Isomer 1]
> 20000		20						4	65	< 4.7	5	< 4.7	5	CCOC(=O)N1CCC2(CC(N3CCC([C@@H]4CCCN4C(=O)NOC)CC3)C2)C1 (single isomer, unassigned) [2-33 Isomer 2]
2000	74	25.1		> 20000			> 20000		89		16		8	CCOC(=O)N1CCC2(CC(N3CCC([C@@H]4CCCN4C(=O)N(C)OC)CC3)C2)C1 (single isomer, unassigned) [2-34 Isomer 1]
3160		251						56	58	< 4.7	3	< 4.7	39	CCOC(=O)N1CCC2(CC(N3CCC([C@@H]4CCCN4C(=O)N(C)OC)CC3)C2)C1 (single isomer, unassigned) [2-34 Isomer 2]
398	108	15.8	92	> 20000	1	4	> 20000							CCOC(=O)N1CCC2(CC(N3CCC([C@@H]4CCCN4C(=O)NC4(C)CCC4)CC3)C2)C1 (single isomer, unassigned) [2-35 Isomer 2]
158	89	6.31	113	> 20000	3	5	> 20000							CCOC(=O)N1CCC2(CC(N3CCC([C@@H]4CCCN4C(=O)NC4(C)COC4)CC3)C2)C1 (single isomer, unassigned) [2-36 Isomer 2]
3160	106	20	83	> 20000	33	58	> 20000							CCOC(=O)N1CCC2(CC(N3CCC([C@@H]4CCCN4C(=O)N4CCC(F)(F)C4)CC3)C2)C1 (single isomer, unassigned) [2-37 Isomer 2]
158	110	5.01	115	> 20000	1	2	> 20000							CCOC(=O)N1CCC2(CC(N3CCC([C@@H]4CCCN4C(=O)NC4CC(F)(F)C4)CC3)C2)C1 (single isomer, unassigned) [2-38 Isomer 2]
2510	41	15.8	76	> 20000	1	1	> 20000							CCOC(=O)N1CCC2(CC(N3CCC([C@@H]4CCCN4C(=O)N4CC(F)(F)C4)CC3)C2)C1 (single isomer, unassigned) [2-39 Isomer 2]
794	78	31.6	90	> 20000	2	1	> 20000							COC(=O)N1CCC2(CC(N3CCC([C@@H]4CCCN4C(=O)NCC(F)(F)F)CC3)C2)C1 (single isomer, unassigned) [2-40 Isomer 2]
